Biological target: T1, progesterone receptors of rabbit uterus (Oryctolagus cuniculus, UniProt P06186)
T1 construct: The first test was on the progesterone receptors of rabbit uterus; from tissue; host or cells: uterus of estradiol-treated immature rabbits, 105,000 g supernatant (cytosol)
T1 sequence (P06186 1-930): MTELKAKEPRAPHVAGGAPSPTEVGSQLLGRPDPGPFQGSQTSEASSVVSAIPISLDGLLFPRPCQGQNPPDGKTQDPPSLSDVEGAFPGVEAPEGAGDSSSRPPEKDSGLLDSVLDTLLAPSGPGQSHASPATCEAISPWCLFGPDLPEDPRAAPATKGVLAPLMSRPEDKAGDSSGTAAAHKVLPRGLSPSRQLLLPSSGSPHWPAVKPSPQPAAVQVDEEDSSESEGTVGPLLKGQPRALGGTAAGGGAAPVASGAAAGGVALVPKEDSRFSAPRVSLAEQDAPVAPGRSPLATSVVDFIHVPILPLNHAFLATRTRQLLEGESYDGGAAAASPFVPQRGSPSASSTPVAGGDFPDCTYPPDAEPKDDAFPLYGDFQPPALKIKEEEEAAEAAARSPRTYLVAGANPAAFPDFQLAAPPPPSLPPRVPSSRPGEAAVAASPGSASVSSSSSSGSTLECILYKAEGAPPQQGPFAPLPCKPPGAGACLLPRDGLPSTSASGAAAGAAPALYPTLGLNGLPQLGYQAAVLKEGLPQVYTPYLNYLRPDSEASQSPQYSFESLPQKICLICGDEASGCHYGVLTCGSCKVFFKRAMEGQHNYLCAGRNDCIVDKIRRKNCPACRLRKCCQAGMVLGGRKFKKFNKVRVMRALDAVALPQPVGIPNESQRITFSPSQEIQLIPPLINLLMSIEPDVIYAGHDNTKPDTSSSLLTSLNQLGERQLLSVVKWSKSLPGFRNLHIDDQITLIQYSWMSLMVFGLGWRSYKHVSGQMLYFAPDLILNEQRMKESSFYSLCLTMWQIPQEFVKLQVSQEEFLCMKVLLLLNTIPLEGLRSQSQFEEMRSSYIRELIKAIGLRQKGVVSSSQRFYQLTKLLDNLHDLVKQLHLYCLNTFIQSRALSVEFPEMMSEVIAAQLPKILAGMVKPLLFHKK
Assay: Relative binding affinity (ARL), progesterone receptors of rabbit uterus
Settings: rabbit uterus cytosol, tritiated 17,21-dimethyl-19-nor-Δ4,9-pregnadiene-3,20-dione, cold reference hormone progesterone; for relative affinity of the bond (ARL), Progestogen, 2H: incubation 2H at 0° C.; for relative affinity of the bond (ARL), Progestogen, 24H: incubation 24H at 0° C.
Description: The first test was on the progesterone receptors of rabbit uterus in which immature rabbits weighing about 1 kg received a cutaneous application of […] of estradiol and 5 days after treatment, the animals were sacrificed. The […] was removed, weighed and homogenized at 0° C. with a Potter Teflon-glass ina buffered solution. TS (Tris 10 mM, 0.25M Saccharose, HCl, pH 7.4) (1 g of tissue per 50 ml of TS). The homogenate was ultracentrifuged at 105,000 g×90 minutes at 0° C. The surnageant samples were incubated at a time at (t) 0° C. with a constant concentration (T) of tritiated product (R) which is 17,21-dimethyl-19-nor-Δ^4,9 -pregnadiene-3,20-dione in the presence of increasing concentrations from 0 to 2500×10^-9 M or cold R or cold progestenone or cold test compound. The concentration of bound tritiated R was measured for each incubate by absorption technique on dextran carbon.
The relative affinity of the bond (ARL) was calculated in the same for the receptors. One traced the following 2 curves: the percentage of bond tritiated hormone B/T as a logarithmic function of the concentration of the cold reference hormone and B/T as a logarithmic function of the concentration of the cold test compound. Using the equation [formula] B/T max.=% of bound tritiated hormone for one incubation of tritiated hormone at concentration (T)
B/T min.=% of bound tritiated hormone for one incubation of tritiated hormone at a concentration T in the presence of a great excess of cold hormone (2500×10^-9 M).
The intersections of I50 lines and the curves permit an evaluation of the hormone concentration of the cold reference (CH) and the cold test compound (CX) which inhibited by 50% the bounding of tritiated hormone to the receptor. The ARL of the test compound was determined by the equation. [formula] and the following results were obtained.

SMILES	relative affinity of the bond (ARL), Progestogen, 2H	relative affinity of the bond (ARL), Progestogen, 24H
CN(C)c1ccc([C@H]2C[C@@]3(C)[C@@H](CC[C@@]3(O)c3ccc(N(C)C)cc3)[C@@H]3CCC4=CC(=O)CCC4=C32)cc1 [Example 2, 11β,17α-bis-(4-dimethylamino-phenyl)-Δ^4,9-estradiene-17β-ol-3-one]	32	183
COc1ccc([C@]2(O)CC[C@H]3[C@@H]4CCC5=CC(=O)CCC5=C4[C@@H](c4ccc(N(C)C)cc4)C[C@@]32C)cc1 [Example 4, 11β-(4-dimethylamino-phenyl)-17α-(4-methoxy-phenyl)-Δ^4,9-estradiene-17β-ol-3-one]	51	264

— patent US4943566A, “Novel 17-aryl-steroids” (Roussel Uclafi, priority 1987, dated 1990)
